These results are taken from US20220194911A1, “NOVEL COMPOUND FOR INHIBITING HISTONE ACETYLTRANSFERASE P300 AND ANTIFIBROTIC COMPOSITION COMPRISING SAME” (REFURE LIFE SCIENCE INC., priority 2019, published 2022).

In general, IC50 refers to the point on the concentration scale where inhibition reaches its midpoint. The low end stands for inhibition by little substance, the high end for a need for much substance.

In the assay the target is HAT p300 (histone acetyltransferase p300) (Homo sapiens, UniProt Q09472). In words: HAT activity kit assay (Biovision K332), inhibition of HAT activity of p300. Format: biochemical. The settings on record: for HAT p300 activity inhibitory effect: diluted to 100 μM, FIG. 9. The method, then: Candidates 1 to 67, which are HAT inhibitors manufactured based on the PCAF structure, and HAT-24, HAT-26, and HAT-28 were diluted to 100 μM, and the degree of inhibition of HAT activity of p300 (inhibitory activity) was then determined using a kit for measuring HAT activity (Biovision, Cat No. K332, U.S.A) according to the method provided by the manufacturer. Here, the tissue was treated with C646 (HAT inhibitor) as a positive control.
Chain of HAT p300 (histone acetyltransferase p300) (Q09472 whole entry): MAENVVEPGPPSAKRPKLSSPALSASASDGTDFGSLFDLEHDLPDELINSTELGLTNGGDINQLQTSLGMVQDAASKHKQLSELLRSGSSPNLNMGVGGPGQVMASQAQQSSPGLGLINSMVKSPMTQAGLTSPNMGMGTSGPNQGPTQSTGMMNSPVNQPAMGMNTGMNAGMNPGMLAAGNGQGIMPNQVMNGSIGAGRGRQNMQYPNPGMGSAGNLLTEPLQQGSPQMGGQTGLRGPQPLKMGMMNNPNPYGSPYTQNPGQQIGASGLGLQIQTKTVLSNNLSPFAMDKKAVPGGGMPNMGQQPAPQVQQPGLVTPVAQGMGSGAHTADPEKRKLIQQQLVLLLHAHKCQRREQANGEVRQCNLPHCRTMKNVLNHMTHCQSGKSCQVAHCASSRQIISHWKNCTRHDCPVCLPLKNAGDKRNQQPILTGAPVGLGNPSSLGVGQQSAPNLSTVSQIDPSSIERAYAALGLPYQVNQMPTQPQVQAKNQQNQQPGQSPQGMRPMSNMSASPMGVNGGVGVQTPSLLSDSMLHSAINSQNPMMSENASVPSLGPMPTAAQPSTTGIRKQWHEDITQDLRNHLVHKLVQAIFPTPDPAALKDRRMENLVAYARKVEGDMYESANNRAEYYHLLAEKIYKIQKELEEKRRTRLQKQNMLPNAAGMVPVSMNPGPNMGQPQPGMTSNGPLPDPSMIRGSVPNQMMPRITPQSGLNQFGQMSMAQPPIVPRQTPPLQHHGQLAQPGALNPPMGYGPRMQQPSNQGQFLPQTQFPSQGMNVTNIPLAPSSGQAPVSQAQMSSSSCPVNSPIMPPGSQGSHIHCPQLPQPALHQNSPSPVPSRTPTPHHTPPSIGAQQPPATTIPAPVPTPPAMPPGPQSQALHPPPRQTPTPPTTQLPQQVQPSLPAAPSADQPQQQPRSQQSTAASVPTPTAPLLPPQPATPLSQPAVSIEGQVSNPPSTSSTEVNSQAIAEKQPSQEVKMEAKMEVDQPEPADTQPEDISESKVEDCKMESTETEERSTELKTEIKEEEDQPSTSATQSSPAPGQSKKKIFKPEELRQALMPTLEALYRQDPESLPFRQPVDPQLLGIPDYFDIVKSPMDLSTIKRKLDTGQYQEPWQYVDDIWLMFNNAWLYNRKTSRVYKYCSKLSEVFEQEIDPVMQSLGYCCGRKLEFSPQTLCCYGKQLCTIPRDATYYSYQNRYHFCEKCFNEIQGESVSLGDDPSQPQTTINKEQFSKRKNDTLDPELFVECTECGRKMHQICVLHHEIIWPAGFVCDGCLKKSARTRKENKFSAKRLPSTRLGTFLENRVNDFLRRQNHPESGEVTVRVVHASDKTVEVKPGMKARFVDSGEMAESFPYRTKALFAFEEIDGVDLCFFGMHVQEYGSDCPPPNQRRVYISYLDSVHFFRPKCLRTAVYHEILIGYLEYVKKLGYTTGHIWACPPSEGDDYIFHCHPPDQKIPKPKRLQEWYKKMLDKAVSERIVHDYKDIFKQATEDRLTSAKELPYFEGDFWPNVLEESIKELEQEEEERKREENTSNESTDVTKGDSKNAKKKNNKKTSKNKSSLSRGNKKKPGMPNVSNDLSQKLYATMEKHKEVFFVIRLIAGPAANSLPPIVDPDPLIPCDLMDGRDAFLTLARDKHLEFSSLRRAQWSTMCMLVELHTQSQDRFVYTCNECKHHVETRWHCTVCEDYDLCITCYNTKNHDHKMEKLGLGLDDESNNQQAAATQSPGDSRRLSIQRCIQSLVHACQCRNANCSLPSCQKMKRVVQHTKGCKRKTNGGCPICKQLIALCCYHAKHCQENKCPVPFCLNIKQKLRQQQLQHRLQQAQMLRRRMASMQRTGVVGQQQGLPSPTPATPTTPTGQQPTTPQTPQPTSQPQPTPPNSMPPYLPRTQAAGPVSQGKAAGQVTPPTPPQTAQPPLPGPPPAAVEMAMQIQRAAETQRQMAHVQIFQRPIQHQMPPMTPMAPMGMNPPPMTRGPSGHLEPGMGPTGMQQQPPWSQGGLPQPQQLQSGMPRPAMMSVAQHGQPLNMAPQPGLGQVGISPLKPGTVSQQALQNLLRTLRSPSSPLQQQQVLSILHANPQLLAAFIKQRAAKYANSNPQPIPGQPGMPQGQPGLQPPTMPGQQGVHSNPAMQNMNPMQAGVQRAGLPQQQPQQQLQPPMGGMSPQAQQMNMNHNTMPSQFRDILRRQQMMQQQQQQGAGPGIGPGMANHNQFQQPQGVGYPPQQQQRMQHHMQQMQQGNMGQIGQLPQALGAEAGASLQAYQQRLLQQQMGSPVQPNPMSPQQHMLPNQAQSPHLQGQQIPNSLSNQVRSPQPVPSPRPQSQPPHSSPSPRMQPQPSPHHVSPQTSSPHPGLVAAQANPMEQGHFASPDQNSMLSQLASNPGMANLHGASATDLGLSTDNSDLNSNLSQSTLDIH
Candidates 1 to 14 having a good HAT activity inhibitory effect in Section were diluted to concentrations of 0.5 μM, 1 μM, 10 μM, and 100 μM. Thereafter, the degree of inhibition of HAT activity was determined in the same manner as in Section.
Synthesis Examples 1 to 19 were diluted to 100 μM, and the degree of inhibition of HAT p300 activity was then determined in the same manner as in Section. Here, the tissues were treated with C646 and Candidate 12 (HAT-12) as the control, instead of Synthesis Examples 1 to 19.

With `COc1cc(/C=N/CCN2CCCCC2)cc(Cl)c1OCc1cccc(Cl)c1` [Candidate 12], the “HAT p300 activity inhibitory effect” value is “approximately 80%”. In addition, the IC50 (secondary screening, tested at 0.5, 1, 10 and 100 μM) came out at 0.953 µM.

For the compound `COc1cc(/C=N/Cc2ccc(C(=O)O)cc2)cc(Cl)c1OCc1cccc(Cl)c1` [Synthesis Example 19, (E)-4-(((3-chloro-4-((3-chlorobenzyl)oxy)-5-methoxybenzylidene)amino)methyl)benzoic acid], the “HAT p300 activity inhibitory effect” value was at least 90%.
